Results published in patent US20100247461A1, “ANTI-INFLAMMATORY COMPLEXES” (Signum Biosciences, Inc., priority 2009, published 2010).
Converted amounts (≈) assume the structure as drawn.

What was measured:
[1] = system: Propionibacterium acnes (strain ATCC 6919); experiment: Inhibition of Propionibacterium acnes growth; assay type: cell-based; details: 72 hours, anaerobic, absorbance 600 nm, 1×10^6 CFU per mL
Procedure: The assay for the inhibition of growth of Propionibacterium acnes bacteria is described elsewhere (Nakatsuji et al., J Invest Dermatol, 2009, 129: 2480-2488). In brief, the strain ATCC 6919 of P. acnes (American Type Culture Collection, Manassas, Va.) was cultured on Brucella agar (R01254, Remel, Lenexa, Kans.) supplemented with 5% (v/v) defibrinated sheep blood, vitamin K (5 mg/ml, Remel, Lenexa, Kans.), and hemin (50 mg/ml, Remel, Lenexa, Kans.), under an anaerobic condition using Gas-Pak (BD, Sparks, Md.) at 37° C. A single colony was inoculated in Reinforced Clostridium Medium (Oxford, Hampshire, England) and cultured at 37° C. under the anaerobic condition. Each of the inventive complexes—AFC-Sr, AFC-Ag and AFC-Zn as well as AFC were dissolved in 100% (v/v) DMSO. Samples of each inventive complex, AFC and a solution of benzoyl peroxide (“BPO”) were then each incubated with an inoculum of P. acnes at a concentration of 1×10^6 CFU per mL in Reinforced Clostridium Medium in a 96-well microplate (100 μL per well) under anaerobic conditions for 72 hours. Samples of each were tested at final concentrations per well of 0.25 μg/mL, 0.5 μg/mL, 1.0 μg/mL, 1.95 μg/mL, 3.9 μg/mL, 7.8 μg/mL, 15.625 μg/mL, 31.25 μg/mL, 62.5 μg/mL, 125 μg/mL, 250μg/mL, and 500 μg/mL. A control well received only 5% (v /v) of DMSO in place of a sample of an inventive complex. After 72 hours incubation under anaerobic conditions, the P. acnes cultures in the 96-well microplate were mixed well and then absorbance readings at 600 nm were taken to determine bacterial growth. […] Growth curves of P. acnes determined for BPO, AFC, AFC-Sr, AFC-Ag and AFC-Zn are depicted in FIG. 3.

[2] = system: TPA-treated mouse ears (erythema, Δa* redness); experiment: TPA mouse ear model of inflammation - erythema inhibition; assay type: in vivo; details: topical, 24 hours
Procedure: The protocol for measuring erythema inhibition by provided complexes was developed in-house by utilizing the CR-400 chroma meter from Konica Minolta (2). This instrument was used to measure the Δa*redness value from 6 mm biopsy punches taken 24 hours post TPA/compound treatment as described in the edema inhibition section above. […] These values were corrected for the Δa* value of non TPA-treated mouse ears of littermate controls.

[3] = system: MPO (myeloperoxidase), neutrophil marker; experiment: TPA mouse ear model of inflammation - MPO inhibition (dermal neutrophil infiltration); assay type: in vivo; details: for % MPO Inhibition in the Mouse Ear Inflammation Assay (4% concentration): topical, 24 hours
Procedure: Briefly, we homogenized 6mm biopsy punches taken from both compound-treated ears as well as TPA-treated and non-treated control groups. We quantitated the levels of MPO by a colorimetric reaction that was measured spectrophotometrically. The percent inhibition of neutrophil infiltration by each complex was determined by comparing the average MPO levels in the presence and absence of these compounds. The calculation for percent inhibition of MPO was determined similar to that as described for calculating the percent edema inhibition, see the Edema Inhibition protocol, supra.

[4] = system: TPA-treated mouse ears (edema, ear thickness); experiment: TPA mouse ear model of inflammation - edema inhibition; assay type: in vivo; details: topical, 24 hours
[5] = system: MPO activity (neutrophil infiltration) in P. acnes-injected ear; experiment: P. acnes-induced mouse ear model of inflammation - MPO endpoint; assay type: in vivo
Procedure: The methods for a model of P. acnes-inflammation are described elsewhere (Nakatsuji et al., J Invest Dermatol, 2008, 128: 2451-2457).
The protocol for inducing inflammation using P. acnes bacterial challenge on the mouse ear was slightly modified from the method described previously (Natatsuji et al., 2008). Briefly, Swiss Webster (ICR, 6-8 weeks old) mouse ears were injected with living P. acnes culture intradermally. An amount of 20 μl aliquots of living P. acnes (ATCC 6919, 3×10^6 CFU) suspended in PBS was intradermally injected in the central portion of the ear. As a control, 20 μl of PBS was injected into control animals.
To assay for inhibition of dermal neutrophil infiltration by AFC complexes, a standard method was used (see Bradley et al., J Invest Dermatol, 1982,78: 206-209; Young et al., J Invest Dermatol, 1983, 80: 48-52; De Young et al, Agents Actions, 1989, 26: 335-41; and Rao et al., Inflammation, 1993, 17: 723-41). Briefly, 6mm biopsy punches taken from both compound-treated ears as well as non-treated control ears were homogenized in 400 μl of 0.5% hexadecyltrimethylammonium bromide in 50 mM potassium phosphate buffer (pH 6.0) using the Fast Prep 24 (MP Biomedicals, Solon, Ohio). Supernatants were assayed for MPO activity using a model EL 340 96-well plate reader (BioTek Instruments, Winooski, Vt.). The percent inhibition of neutrophil infiltration by each AFC complex was determined by comparing the average MPO levels in the presence and absence of these compounds. The percent inhibition of MPO was determined by taking the average MPO activity of compound-treated ears and dividing it by the average MPO activity of 12 ears that only received the P. acnes challenge and subtracting that value from 100%. These values were corrected for the MPO activity of normal, non P. acnes-treated mouse ears of littermate controls. Summary of MPO activity ranges determined from an MPO activity assay for dexamethasone (administered at a dose of 1.6 mg/20 μL), clobetasol (administered at a dose of 0.1 mg/20 μL), salicylic acid (administered at a dose of 0.4 mg/20 μL), AFC (administered at a dose of 0.4 mg/20 μL), AFC-Strontium complex (administered at a dose of 0.4 mg/20 μL) and SFC-disodium are presented in Table 4. “+” indicates a range of 0-20%, “++” indicates a range of 20-40%, and “+++” indicates >40% inhibition.

[6] = system: TPA-treated mouse ears (edema, ear thickness); experiment: TPA mouse ear model of inflammation - edema inhibition; assay type: in vivo; details: TPA-treated mouse ear, at the dose tested; AFC oil n=1, data not shown
Procedure: In brief, mice were sedated and their ears were treated with 1.2 μg/20 uL TPA (i.e., tetradecanoylphorbol-13-acetate). After 5 minutes, we dosed these TPA-treated ears with a single 8 μg/20 μL dose, a 2 μg/20 μL dose, or both doses, of provided complexes. After 24 hours, the mice were sacrificed and edema was measured by taking micrometer readings of each ear. […] These values were corrected for the thickness of normal, non TPA-treated mouse ears of littermate controls.

[7] = system: mouse skin reepithelialization; experiment: Mouse wound healing model - skin reepithelialization; assay type: in vivo
Source text: The healing of wounded skin is mediated by epidermal reepithelialization that requires keratinocyte migration. Glucocorticoids are known to inhibit wound healing (Ehrlich et al., Proc Soc Exp Biol Med, 1971, 137: 936-938; Leibovich et al., Am J Pathol, 1975, 78, 71-100). […] The methods for studying mouse skin reepithelialization using both partial and full thickness mouse wound healing models have been described elsewhere (Kim et al. Wound Repair Regen, 2001, 9: 386-390). In brief, for partial thickness wounds, a 3 mm-diameter circle of epidermis is removed from the ventral auricle. The resulting wound is cleansed and dressed with an occlusive polyurethane film. The mouse ears are excised on days 3, 5, 8, and 11 post-operation and fixed in 10% buffered formalin. Following day 8 post-operation, sampling of treated mice is performed to determine completion of healing. For full thickness wounds, mice heads are shaved and depilated prior to excising the skin. The cleaned and dressed wounds are harvested and fixed at days 3, 5, 8 and 10 and fixed in 10% buffered formalin.

Molecule	% Erythema Inhibition in the Mouse Ear Inflammation Assay (4% concentration) [2]	% MPO Inhibition in the Mouse Ear Inflammation Assay (4% concentration) ([3]; TPA-treated mouse ear)	% Edema Inhibition in the Mouse Ear Inflammation Assay (4% concentration) [4]	other results
Zinc (R)-2-acetamido-3-((2E,6E)-3,7,11-trimethyldodeca-2,6,10-trienylthio)propanoate [AFC-Zinc complex]	–	–	–	IC50 (inhibition of P. acnes growth) [1]: 9.2 µg/mL
CC(C)=CCC/C(C)=C/CC/C(C)=C/CSC[C@H](NC(=O)CCC(=O)[O-])C(=O)O.[Na+] [SFC-monosodium]	++ (“++” indicates a range of 20-40%)	++ (“++” indicates a range of 40-80%)	++ (“++” indicates a range of 20-50%)	–
CC(C)=CCC/C(C)=C/CC/C(C)=C/CSC[C@H](NC(=O)CCC(=O)[O-])C(=O)[O-].[Na+].[Na+] [SFC-disodium]	++ (“++” indicates a range of 20-40%)	++ (“++” indicates a range of 40-80%)	++ (“++” indicates a range of 20-50%)	MPO % Inhibition ([5]; dose not given): +++ (“+++” indicates >40% inhibition)
O=C(OOC(=O)c1ccccc1)c1ccccc1 [BPO, benzoyl peroxide, reference compound]	–	–	–	IC50 ([1]; Cutibacterium acnes, ATCC6919, 72 h, read-out: IC50 (inhibition of P. acnes growth)): 161 µg/mL (≈ 665 µM)
CC(C)=CCC/C(C)=C/CC/C(C)=C/CSC[C@H](NC(=O)CCC(=O)O)C(=O)O [SFC, N-succinyl-S-farnesyl-L-cysteine]	+ (“+”indicates a range of 0-20%)	+++ (“+++” indicates >80% inhibition of MPO)	+++ (“+++” indicates >50% inhibition of edema)	–
CC(=O)N[C@@H](CSC/C=C(\C)CC/C=C(\C)CCC=C(C)C)C(=O)O [AFC-Glucosamine complex, Glucosamine (R)-2-acetamido-3-((2E,6E)-3,7,11-trimethyldodeca-2,6,10-trienylthio)propanoate]	–	++ (“++” indicates a range of 40-80%)	+++ (“+++” indicates >50% inhibition of edema)	inhibition of edema [6]: 70.84±5.25%; inhibition of neutrophil infiltration ([3]; TPA-treated mouse ear, at the dose tested, AFC oil n=1, data not shown): 73.15±6.0%
C[C@H]1C[C@H]2[C@@H]3CCC4=CC(=O)C=C[C@]4(C)[C@@]3(F)[C@@H](O)C[C@]2(C)[C@@]1(O)C(=O)CCl [Clobetasol]	–	–	–	MPO % Inhibition ([5]; dose of 0.1 mg/20 μL): +++ (“+++” indicates >40% inhibition); effect on mouse skin reepithelialization of wounds [7]: significantly delayed
C[C@@H]1C[C@H]2[C@@H]3CCC4=CC(=O)C=C[C@]4(C)[C@@]3(F)[C@@H](O)C[C@]2(C)[C@@]1(O)C(=O)CO [Dexamethasone]	–	–	–	MPO % Inhibition ([5]; dose of 1.6 mg/20 μL): +++ (“+++” indicates >40% inhibition)
O=C(O)c1ccccc1O [Salicylic Acid]	–	–	–	MPO % Inhibition ([5]; dose of 0.4 mg/20 μL): ++ (“++” indicates a range of 20-40%)
[Cl-].[Cl-].[Sr+2] [Strontium chloride, reference compound]	+ (“+”indicates a range of 0-20%)	–	+ (“+”indicates a range of 0-20%)	biological activity compared with AFC-strontium complex (FIG. 1) ([3]; FIG. 1, follows the MPO discussion of b517, assay not named): no significant activity
Calcium 4-((R)-1-carboxy-2-((2E,6E)-3,7,11-trimethyldodeca-2,6,10-trienylthio)ethylamino)-4-oxobutanoate [SFC-calcium complex]	+++ (“+++” indicates >40% inhibition of erythema)	++ (“++” indicates a range of 40-80%)	+++ (“+++” indicates >50% inhibition of edema)	–
Strontium (R)-2-amino-3-((2E,6E)-3,7,11-trimethyldodeca-2,6,10-trienylthio)propanoate [Farnesyl Cysteine-Strontium complex]	++ (“++” indicates a range of 20-40%)	–	++ (“++” indicates a range of 20-50%)	–
